Experimental data reported in paper PMC9882058 (bioRxiv, 2023).

target: TcdA (Clostridioides difficile, UniProt P16154); conditions: peptides on beads; 0.2 µM TcdA-AF594; qualitative
Sequence (P16154 whole entry, looked up): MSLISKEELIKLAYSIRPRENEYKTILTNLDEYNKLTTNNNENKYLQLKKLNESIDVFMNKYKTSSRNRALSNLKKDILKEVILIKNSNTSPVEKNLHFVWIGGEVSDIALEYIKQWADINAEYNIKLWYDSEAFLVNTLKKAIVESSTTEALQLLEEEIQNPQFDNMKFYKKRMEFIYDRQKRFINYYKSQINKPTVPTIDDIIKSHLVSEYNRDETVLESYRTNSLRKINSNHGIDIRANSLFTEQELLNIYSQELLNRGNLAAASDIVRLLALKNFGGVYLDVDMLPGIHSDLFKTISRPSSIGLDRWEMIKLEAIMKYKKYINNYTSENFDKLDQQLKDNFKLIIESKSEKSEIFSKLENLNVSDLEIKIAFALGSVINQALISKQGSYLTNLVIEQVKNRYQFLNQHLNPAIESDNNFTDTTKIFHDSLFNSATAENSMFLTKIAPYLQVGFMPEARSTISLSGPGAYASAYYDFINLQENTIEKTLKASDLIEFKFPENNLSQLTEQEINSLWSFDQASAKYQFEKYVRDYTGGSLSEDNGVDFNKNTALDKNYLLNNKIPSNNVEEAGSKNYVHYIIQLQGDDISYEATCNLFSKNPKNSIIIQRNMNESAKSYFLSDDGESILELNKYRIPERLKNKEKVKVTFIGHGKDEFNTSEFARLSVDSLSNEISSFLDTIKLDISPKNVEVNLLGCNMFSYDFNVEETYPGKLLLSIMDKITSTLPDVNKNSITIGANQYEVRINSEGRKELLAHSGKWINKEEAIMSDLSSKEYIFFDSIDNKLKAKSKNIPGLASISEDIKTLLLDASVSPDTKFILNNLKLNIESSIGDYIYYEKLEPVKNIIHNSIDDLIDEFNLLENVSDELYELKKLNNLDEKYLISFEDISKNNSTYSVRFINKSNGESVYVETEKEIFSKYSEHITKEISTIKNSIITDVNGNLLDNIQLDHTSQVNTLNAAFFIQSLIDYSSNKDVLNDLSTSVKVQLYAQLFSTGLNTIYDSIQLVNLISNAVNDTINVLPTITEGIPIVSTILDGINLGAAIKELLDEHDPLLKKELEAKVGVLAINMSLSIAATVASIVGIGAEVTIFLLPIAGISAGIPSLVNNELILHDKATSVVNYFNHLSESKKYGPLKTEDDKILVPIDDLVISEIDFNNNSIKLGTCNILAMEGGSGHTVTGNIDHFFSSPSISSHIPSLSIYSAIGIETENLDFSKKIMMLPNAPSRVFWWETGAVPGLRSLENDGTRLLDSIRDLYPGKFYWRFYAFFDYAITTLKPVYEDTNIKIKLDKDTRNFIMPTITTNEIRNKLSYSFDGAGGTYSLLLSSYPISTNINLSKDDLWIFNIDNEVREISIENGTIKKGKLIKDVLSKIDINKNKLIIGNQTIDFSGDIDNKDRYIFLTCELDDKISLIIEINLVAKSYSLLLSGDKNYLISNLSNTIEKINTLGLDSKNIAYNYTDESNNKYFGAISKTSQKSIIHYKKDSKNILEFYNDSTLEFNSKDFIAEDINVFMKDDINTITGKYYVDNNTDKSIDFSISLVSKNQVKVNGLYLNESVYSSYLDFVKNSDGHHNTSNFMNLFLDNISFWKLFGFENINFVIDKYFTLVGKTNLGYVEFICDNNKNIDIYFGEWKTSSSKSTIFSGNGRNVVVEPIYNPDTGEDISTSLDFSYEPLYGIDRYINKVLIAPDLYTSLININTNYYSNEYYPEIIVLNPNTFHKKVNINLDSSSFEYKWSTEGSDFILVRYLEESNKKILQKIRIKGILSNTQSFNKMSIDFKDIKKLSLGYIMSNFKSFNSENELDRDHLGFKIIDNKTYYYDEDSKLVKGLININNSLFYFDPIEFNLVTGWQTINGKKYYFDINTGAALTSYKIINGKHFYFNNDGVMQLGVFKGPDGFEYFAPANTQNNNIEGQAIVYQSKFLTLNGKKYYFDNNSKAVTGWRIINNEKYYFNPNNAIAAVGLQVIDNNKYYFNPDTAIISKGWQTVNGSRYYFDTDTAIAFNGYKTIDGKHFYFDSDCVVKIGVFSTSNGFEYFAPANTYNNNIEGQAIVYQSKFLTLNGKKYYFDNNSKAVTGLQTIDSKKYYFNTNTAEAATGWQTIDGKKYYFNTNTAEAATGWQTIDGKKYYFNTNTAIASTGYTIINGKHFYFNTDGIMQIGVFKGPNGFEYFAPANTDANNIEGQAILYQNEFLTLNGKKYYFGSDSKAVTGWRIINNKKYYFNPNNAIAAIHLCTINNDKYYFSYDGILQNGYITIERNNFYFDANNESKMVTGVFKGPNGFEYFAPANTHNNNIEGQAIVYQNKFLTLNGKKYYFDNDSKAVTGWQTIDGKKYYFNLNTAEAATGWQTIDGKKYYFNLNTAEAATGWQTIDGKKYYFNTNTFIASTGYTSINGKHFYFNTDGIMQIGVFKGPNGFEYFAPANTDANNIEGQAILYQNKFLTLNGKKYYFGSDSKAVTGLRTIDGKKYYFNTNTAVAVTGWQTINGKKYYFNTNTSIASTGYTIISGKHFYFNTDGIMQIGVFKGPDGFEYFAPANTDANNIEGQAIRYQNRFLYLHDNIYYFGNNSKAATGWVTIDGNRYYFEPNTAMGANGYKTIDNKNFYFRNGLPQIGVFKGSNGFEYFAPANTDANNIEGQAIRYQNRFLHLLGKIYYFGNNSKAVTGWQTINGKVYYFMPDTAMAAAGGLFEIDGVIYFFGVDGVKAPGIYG

Row | Sequence | TcdA binding performance in bead-based screen
1 | QDWMRRHW [SA2] | performed significantly better than those from Case 3 (SA6, SA7)
2 | EFWMGRHH [SA5] | performed significantly better than those from Case 3 (SA6, SA7)
3 | MFWEHRHR [SA4] | performed significantly better than those from Case 3 (SA6, SA7)
